Reference: ChEMBL document CHEMBL4814003, “Novel dual-mode antitumor chlorin-based derivatives as potent photosensitizers and histone deacetylase inhibitors for photodynamic therapy and chemotherapy” (Eur J Med Chem, 2021)

Assays:
[1] = Drug uptake in human A549 cells assessed as compound localization in lysosome at 0.1 uM measured after 24 hrs by Lysotracker Green DND-26 dye based laser confocal microscopy; format: ADME, subcellular; details: a549, 24 h
[2] = Drug uptake in human A549 cells assessed as compound localization in nucleus at 0.1 uM measured after 24 hrs by laser confocal microscopy; format: ADME, subcellular; details: a549, 24 h
A549 [3] = assay: Induction of apoptosis in human A549 cells assessed as apoptotic cells at 0.01 uM in presence of light irradiation incubated for 48 hrs by annexin V-FITC staining based flow cytometry; format: functional
[4] = target: T1, Protein deacetylase HDAC6 (Homo sapiens, UniProt Q9UBN7); assay: Inhibition of human recombinant HDAC6 using Ac-Leu-Gly-Lys(Ac)-AMC as substrate by measuring fluorescence intensity incubated for 30 mins by microplate reader assay
T1 sequence (Q9UBN7 whole entry): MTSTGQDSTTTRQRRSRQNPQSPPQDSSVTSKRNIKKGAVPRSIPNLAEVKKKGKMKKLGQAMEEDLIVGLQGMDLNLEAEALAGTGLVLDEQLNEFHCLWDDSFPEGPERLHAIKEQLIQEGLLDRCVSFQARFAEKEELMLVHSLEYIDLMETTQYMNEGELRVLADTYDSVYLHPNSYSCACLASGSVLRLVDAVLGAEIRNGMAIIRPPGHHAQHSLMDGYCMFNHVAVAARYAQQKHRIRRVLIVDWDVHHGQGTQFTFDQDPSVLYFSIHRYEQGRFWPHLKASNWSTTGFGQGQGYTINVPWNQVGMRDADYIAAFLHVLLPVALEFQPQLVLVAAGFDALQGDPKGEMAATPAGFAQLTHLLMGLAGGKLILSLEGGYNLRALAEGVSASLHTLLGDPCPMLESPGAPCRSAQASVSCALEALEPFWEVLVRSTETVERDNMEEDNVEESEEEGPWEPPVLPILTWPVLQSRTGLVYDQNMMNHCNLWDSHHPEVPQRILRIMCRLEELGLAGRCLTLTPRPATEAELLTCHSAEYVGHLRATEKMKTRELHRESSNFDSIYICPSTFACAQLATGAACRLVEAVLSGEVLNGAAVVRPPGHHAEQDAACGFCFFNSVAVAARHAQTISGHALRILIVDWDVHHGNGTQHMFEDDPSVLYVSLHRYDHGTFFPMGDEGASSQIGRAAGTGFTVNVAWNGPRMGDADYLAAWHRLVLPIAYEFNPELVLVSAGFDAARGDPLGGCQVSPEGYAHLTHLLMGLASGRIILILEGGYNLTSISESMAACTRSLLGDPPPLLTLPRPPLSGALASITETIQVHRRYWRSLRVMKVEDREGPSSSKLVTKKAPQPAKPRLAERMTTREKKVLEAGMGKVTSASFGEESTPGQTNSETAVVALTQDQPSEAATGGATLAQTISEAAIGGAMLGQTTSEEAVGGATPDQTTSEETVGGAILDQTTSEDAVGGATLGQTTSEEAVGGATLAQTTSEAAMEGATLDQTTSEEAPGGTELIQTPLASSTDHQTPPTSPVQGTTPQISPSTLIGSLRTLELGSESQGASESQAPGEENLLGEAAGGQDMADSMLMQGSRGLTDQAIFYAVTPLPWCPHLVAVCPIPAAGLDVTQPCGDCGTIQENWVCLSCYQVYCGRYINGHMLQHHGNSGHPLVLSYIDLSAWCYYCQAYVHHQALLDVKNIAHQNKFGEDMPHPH

A549 [5] = assay: Induction of apoptosis in human A549 cells assessed as apoptotic cells at 0.5 uM in absence of light irradiation incubated for 48 hrs by annexin V-FITC staining based flow cytometry; format: functional
A549 [6] = assay: Induction of reactive oxygen species generation in human A549 cells assessed as mean count value at 0.01 uM incubated for 24 hrs by DCFH-DA staining based fluorescence microscopy assay; format: functional
A549 [7] = assay: Dark toxicity in human A549 cells assessed as reduction in cell viability incubated under dark for 48 hrs measured after 48 hrs by CCK8 assay; format: functional, cell-based; details: A549, 48 h

- Drug uptake [1]: Active
- Drug uptake [2]: Not Active
- IC50 [4]: > 100 µM
Compound: C=Cc1c(C)c2cc3nc(c(C(=O)OC)c4[nH]c(cc5nc(cc1[nH]2)C(C)=C5CC)c(C)c4C(=O)OC)[C@@H](CCC(=O)Nc1ccc(C(=O)Nc2ccccc2N)cc1)[C@@H]3C
- Activity (A549 [3]): 27.32%
- Activity (A549 [5]): 54.74%
- Activity (A549 [6]): 770.81
- IC50 (A549 [7]): 300 nM
